Experimental data: patent US20090005442A1, “CARBAMATE COMPOUNDS FOR USE IN PREVENTING OR TREATING NEURODEGENERATIVE DISORDERS” (priority 2001, published 2009)

Test system: PC12 cells
Test: PC12 cell serum withdrawal model (MTS cell survival assay)
Assay type: cell-based
Settings: control cells = 100%; for 7 Day Survival Rate (%): 10 μM applied at serum withdrawal and every 48 hr, MTS assay at 7 days; for 2 Day Survival Rate (%): 10 μM applied once at serum withdrawal, MTS assay at 2 days
Excerpt: Serum withdrawal is a cytotoxic environmental challenge that results in cell death in cultured cell lines as well as in primary cells of various tissue origins, including nerve cells. In particular, pheochromocytoma (PC) 12 cells have been widely employed as an in vitro neuronal cell model for a wide variety of neurodegenerative and cell death related disorders (Muriel, et al, Mitochondrial free calcium levels (Rhod-2 fluorescence) and ultrastructural alterations in neuronally differentiated PC12 cells during ceramide-dependent cell death, J. Comp. Neurol., 2000, 426(2), 297-315; Dermitzaki, et al, Opioids transiently prevent activation of apoptotic mechanisms following short periods of serum withdrawal, J. Neurochem., 2000, 74(3), 960-969; Carlile, et al, Reduced apoptosis after nerve growth factor and serum withdrawal: conversion of tetrameric glyceraldehyde-3-phosphate dehydrogenase to a dimer, Mol. Pharmacol., 2000, 57(1), 2-12).
PC12 cells were cultured in sterile media (RPMI 1640) supplemented with 10% heat-inactivated horse serum and 5% fetal bovine serum (FBS). The culture medium also contained 1× Penicillin-Streptomycin-Neomycin antibiotic (50 μg, 50 μg, 100 μg, respectively). Medium was exchanged every other day and the cells were passed in log phase near confluence.
The control cells were cultured in regular media without any treatment. An enantiomer of Formula (Ib) or […] (10 μM) was mixed well in the medium and then applied to the cells. For the 2 day assay, an enantiomer of Formula (Ib) or […] (10 μM) was only applied to the cells once at the time of serum withdrawal. For the 7 day assay, an enantiomer of Formula (Ib) or Formula (IIb) (10 μM) was applied to the cells at the time of serum withdrawal and every 48 hr thereafter when cells were changed with fresh new serum-free medium. In the serum withdrawal group, the cells were cultured in serum-free medium with no additional enantiomer of Formula (Ib) or Formula (IIb). Cell survival was determined by the 3-(4,5-dimethylthiazol-2-yl)-5-(3-carboxy-methoxyphenyl)-2-(4-sulfophenyl)-2H-tetrazolium inner salt (MTS) assay at 2 or 7 days after serum withdrawal.
At the end of the experiment, cells were washed with fresh medium and incubated with MTS solution in a humidified 37° C. with 5% CO2 incubator for 1.5 hr. After the incubation period, the cells were immediately analyzed using a Softmax program (Molecular Devices). […] The assay is based on the cellular conversion of the tetrazolium salt, MTS, into a formazan that is soluble in tissue culture medium and measured directly at 490 nm in 96-well assay plates. The absorbance is directly proportional to the number of living cells in culture. The arbitrary absorbance reading in control cells is expressed as 100% survival rate.

| Compound | 7 Day Survival Rate (%) | 2 Day Survival Rate (%) |
| --- | --- | --- |
| NC(=O)OC[C@@H](O)c1ccccc1Cl [Formula (Ib)] | 79.9 ± 4.0^2% | 69.4 ± 1.7^1% |
| NC(=O)OC[C@H](OC(N)=O)c1ccccc1Cl [Formula (IIb)] | 85.2 ± 0.6^2% | 66.4 ± 5.4^1% |
